# According to PubChem BioAssay (NCI):
#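 Growth conditions: 96-well plates. Treatment: test compound, 48 hours, 5 concentrations. Analysis: linear interpolation between bracketing concentrations; unreached endpoints set to highest concentration. The concentration for full growth arrest is given as TGI.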
# Legend:
# Test in all cases: growth of human tumour cells (NCI), 48 h
# 786-0 renal = tested on: 786-0 renal
# A498 renal = tested on: A498 renal
# A549 NSCLC = tested on: A549 NSCLC
# ACHN renal = tested on: ACHN renal
# BT-549 breast = tested on: BT-549 breast
# CAKI-1 renal = tested on: CAKI-1 renal
# CCRF-CEM leukemia = tested on: CCRF-CEM leukemia
# COLO 205 colon = tested on: COLO 205 colon
# DU-145 prostate = tested on: DU-145 prostate
# EKVX NSCLC = tested on: EKVX NSCLC
# HCC-2998 colon = tested on: HCC-2998 colon
# HCT-116 colon = tested on: HCT-116 colon
# HCT-15 colon = tested on: HCT-15 colon
# HL-60(TB) leukemia = tested on: HL-60(TB) leukemia
# HOP-62 NSCLC = tested on: HOP-62 NSCLC
# HOP-92 NSCLC = tested on: HOP-92 NSCLC
# HS 578T breast = tested on: HS 578T breast
# HT29 colon = tested on: HT29 colon
# IGROV1 ovarian = tested on: IGROV1 ovarian
# K-562 leukemia = tested on: K-562 leukemia
# KM12 colon = tested on: KM12 colon
# LOX IMVI melanoma = tested on: LOX IMVI melanoma
# M14 melanoma = tested on: M14 melanoma
# MALME-3M melanoma = tested on: MALME-3M melanoma
# MCF7 breast = tested on: MCF7 breast
# MDA-MB-231 breast = tested on: MDA-MB-231 breast
# MDA-MB-435 = tested on: MDA-MB-435
# MDA-N = tested on: MDA-N
# MOLT-4 leukemia = tested on: MOLT-4 leukemia
# NCI-H226 lung = tested on: NCI-H226 lung
# NCI-H23 lung = tested on: NCI-H23 lung
# NCI-H460 lung = tested on: NCI-H460 lung
# NCI-H522 lung = tested on: NCI-H522 lung
# NCI/ADR-RES ovarian = tested on: NCI/ADR-RES ovarian
# OVCAR-3 ovarian = tested on: OVCAR-3 ovarian
# OVCAR-4 ovarian = tested on: OVCAR-4 ovarian
# OVCAR-5 ovarian = tested on: OVCAR-5 ovarian
# OVCAR-8 ovarian = tested on: OVCAR-8 ovarian
# PC-3 prostate = tested on: PC-3 prostate
# RPMI-8226 leukemia = tested on: RPMI-8226 leukemia
# RXF 393 renal = tested on: RXF 393 renal
# SF-268 CNS = tested on: SF-268 CNS
# SF-295 CNS = tested on: SF-295 CNS
# SF-539 CNS = tested on: SF-539 CNS
# SK-MEL-2 melanoma = tested on: SK-MEL-2 melanoma
# SK-MEL-28 melanoma = tested on: SK-MEL-28 melanoma
# SK-MEL-5 melanoma = tested on: SK-MEL-5 melanoma
# SK-OV-3 ovarian = tested on: SK-OV-3 ovarian
# SN12C renal = tested on: SN12C renal
# SNB-19 CNS = tested on: SNB-19 CNS
# SNB-75 CNS = tested on: SNB-75 CNS
# SR leukemia = tested on: SR leukemia
# SW-620 colon = tested on: SW-620 colon
# T-47D breast = tested on: T-47D breast
# TK-10 renal = tested on: TK-10 renal
# U251 CNS = tested on: U251 CNS
# UACC-257 melanoma = tested on: UACC-257 melanoma
# UACC-62 melanoma = tested on: UACC-62 melanoma
# UO-31 renal = tested on: UO-31 renal
compound,measurement,setting,value
CC(=O)n1nc(-c2nc3ccccc3nc2Cl)cc1Cl,TGI,786-0 renal,78.8 µM
same,TGI,A498 renal,> 100 µM
same,TGI,A549 NSCLC,> 88.5 µM
same,TGI,ACHN renal,28.5 µM
same,TGI,BT-549 breast,28.8 µM
same,TGI,CAKI-1 renal,21.6 µM
same,TGI,CCRF-CEM leukemia,7.73 µM
same,TGI,COLO 205 colon,33.2 µM
same,TGI,DU-145 prostate,43.1 µM
same,TGI,EKVX NSCLC,37.7 µM
same,TGI,HCC-2998 colon,> 100 µM
same,TGI,HCT-116 colon,25.4 µM
same,TGI,HCT-15 colon,57.3 µM
same,TGI,HL-60(TB) leukemia,35 µM
same,TGI,HOP-62 NSCLC,73.8 µM
same,TGI,HOP-92 NSCLC,> 100 µM
same,TGI,HS 578T breast,> 91.7 µM
same,TGI,HT29 colon,51.9 µM
same,TGI,IGROV1 ovarian,> 100 µM
same,TGI,K-562 leukemia,> 53.2 µM
same,TGI,KM12 colon,48.5 µM
same,TGI,LOX IMVI melanoma,33.3 µM
same,TGI,M14 melanoma,19.4 µM
same,TGI,MALME-3M melanoma,> 78.7 µM
same,TGI,MCF7 breast,> 82.6 µM
same,TGI,MDA-MB-231 breast,> 100 µM
same,TGI,MDA-MB-435,19 µM
same,TGI,MDA-N,24.2 µM
same,TGI,MOLT-4 leukemia,14.3 µM
same,TGI,NCI-H226 lung,30.8 µM
same,TGI,NCI-H23 lung,49.6 µM
same,TGI,NCI-H460 lung,> 88.2 µM
same,TGI,NCI-H522 lung,31.2 µM
same,TGI,NCI/ADR-RES ovarian,55.8 µM
same,TGI,OVCAR-3 ovarian,68.2 µM
same,TGI,OVCAR-4 ovarian,53.3 µM
same,TGI,OVCAR-5 ovarian,> 92.3 µM
same,TGI,OVCAR-8 ovarian,67.1 µM
same,TGI,PC-3 prostate,> 100 µM
same,TGI,RPMI-8226 leukemia,> 100 µM
same,TGI,RXF 393 renal,> 100 µM
same,TGI,SF-268 CNS,> 100 µM
same,TGI,SF-295 CNS,> 93.2 µM
same,TGI,SF-539 CNS,10.1 µM
same,TGI,SK-MEL-2 melanoma,> 100 µM
same,TGI,SK-MEL-28 melanoma,> 86.3 µM
same,TGI,SK-MEL-5 melanoma,16.1 µM
same,TGI,SK-OV-3 ovarian,> 77.7 µM
same,TGI,SN12C renal,> 65.9 µM
same,TGI,SNB-19 CNS,> 92 µM
same,TGI,SNB-75 CNS,76.6 µM
same,TGI,SR leukemia,13.3 µM
same,TGI,SW-620 colon,> 100 µM
same,TGI,T-47D breast,> 100 µM
same,TGI,TK-10 renal,> 100 µM
same,TGI,U251 CNS,> 77.6 µM
same,TGI,UACC-257 melanoma,> 100 µM
same,TGI,UACC-62 melanoma,> 100 µM
same,TGI,UO-31 renal,4.79 µM
CCC(CC)C(=O)OC[n+]1cccc(-c2c(COC(=O)NC(C)C)c(COC(=O)NC(C)C)c3n2CCC3)c1,TGI,786-0 renal,> 100 µM
same,TGI,A498 renal,> 100 µM
same,TGI,A549 NSCLC,> 100 µM
same,TGI,ACHN renal,> 100 µM
same,TGI,BT-549 breast,> 100 µM
same,TGI,CAKI-1 renal,> 100 µM
same,TGI,CCRF-CEM leukemia,> 100 µM
same,TGI,COLO 205 colon,> 100 µM
same,TGI,DU-145 prostate,> 100 µM
same,TGI,EKVX NSCLC,> 100 µM
same,TGI,HCC-2998 colon,> 100 µM
same,TGI,HCT-116 colon,> 100 µM
same,TGI,HCT-15 colon,> 100 µM
same,TGI,HL-60(TB) leukemia,> 100 µM
same,TGI,HOP-62 NSCLC,> 100 µM
same,TGI,HOP-92 NSCLC,> 100 µM
same,TGI,HS 578T breast,> 100 µM
same,TGI,HT29 colon,> 100 µM
same,TGI,IGROV1 ovarian,> 100 µM
same,TGI,K-562 leukemia,> 100 µM
same,TGI,KM12 colon,> 100 µM
same,TGI,LOX IMVI melanoma,> 100 µM
same,TGI,M14 melanoma,> 100 µM
same,TGI,MALME-3M melanoma,> 100 µM
same,TGI,MCF7 breast,> 100 µM
same,TGI,MDA-MB-231 breast,> 100 µM
same,TGI,MDA-MB-435,> 100 µM
same,TGI,MDA-N,> 100 µM
same,TGI,MOLT-4 leukemia,> 100 µM
same,TGI,NCI-H226 lung,> 100 µM
same,TGI,NCI-H23 lung,> 100 µM
same,TGI,NCI-H460 lung,> 100 µM
same,TGI,NCI-H522 lung,> 100 µM
same,TGI,NCI/ADR-RES ovarian,> 100 µM
same,TGI,OVCAR-3 ovarian,> 100 µM
same,TGI,OVCAR-4 ovarian,> 100 µM
same,TGI,OVCAR-5 ovarian,> 100 µM
same,TGI,OVCAR-8 ovarian,> 100 µM
same,TGI,PC-3 prostate,> 100 µM
same,TGI,RPMI-8226 leukemia,> 100 µM
same,TGI,RXF 393 renal,> 100 µM
same,TGI,SF-268 CNS,> 100 µM
same,TGI,SF-295 CNS,> 100 µM
same,TGI,SF-539 CNS,> 100 µM
same,TGI,SK-MEL-2 melanoma,> 100 µM
same,TGI,SK-MEL-28 melanoma,> 100 µM
same,TGI,SK-MEL-5 melanoma,> 100 µM
same,TGI,SK-OV-3 ovarian,> 100 µM
same,TGI,SN12C renal,> 100 µM
same,TGI,SNB-19 CNS,> 100 µM
same,TGI,SNB-75 CNS,> 100 µM
same,TGI,SR leukemia,> 100 µM
same,TGI,SW-620 colon,> 100 µM
same,TGI,T-47D breast,> 100 µM
same,TGI,TK-10 renal,> 100 µM
same,TGI,U251 CNS,> 100 µM
same,TGI,UACC-257 melanoma,> 100 µM
same,TGI,UACC-62 melanoma,> 100 µM
same,TGI,UO-31 renal,> 100 µM
